Reference: US11292803B2, “Bioreducible N-oxide-based probes for imaging of hypoxia” (THE BOARD OF TRUSTEES OF THE UNIVERSITY OF ILLINOIS, priority 2018, dated 2022)

Tests used:
[1] = Chemostability under ambient light and temperature; type: physicochemical; conditions: 10 μM solution, up to 5 days
Description: FIG. 11. Fluorescence intensity (Ex.=670 nm) of HyP-1 (2 μM) at the indicated time points during extended incubation in 0.1 M potassium phosphate buffer (pH 7.4, 0.1% v/v CrEL) under ambient light and temperature. Represented as mean±SD (n=3).
(§1) In addition to Fe(II), the response of HyP-1 to a variety of alkali, alkaline earth and transition metals was also determined. […] To further evaluate the stability of HyP-1, a 10 μM solution of the probe was exposed to ambient light and temperature for up to 5 days. Additionally, a 10 μM solution of HyP-1 supplemented with human plasma was incubated at 37° C. for 3 hours. […] As mentioned previously, a major limitation of 2-nitroimidazole-based hypoxia probes is their susceptibility to oxygen-independent reduction via two-electron processes, such as by bacterial nitroreductases. […] Finally, the photostability of both HyP-1 and red-HyP-1 was evaluated via continuous PA image acquisition at 770 nm over the course of 1 hour.

[2] = pH dependence of absorbance and emission spectra; type: physicochemical; conditions: buffers pH 4.8 to 12.0
Description: FIG. 13. (a) Absorbance and (b) fluorescence spectra of HyP-1 (2 μM) in 20 mM BRB buffers containing 50% v/v EtOH (pH range 4.8-12.0).
FIG. 14. (a) Absorbance and (b) fluorescence spectra of red-HyP-1 (2 μM) in 20 mM BRB buffers containing 50% v/v EtOH (pH range 4.8-12.0).
as §1
0.1 M potassium phosphate buffer (pH 7.4) was prepared by combining stock solutions of KH2PO4 (1 M, 0.990 mL) and K2HPO4 (1 M, 4.010 mL) and diluting to a final volume of 50 mL. […] Fine adjustments to pH were made via addition of 0.1 M HCl or 0.1 M NaOH. pH values were determined using a Mettler-Toledo SevenCompact pH meter calibrated using pH 4.0, 7.0 and 10.0 standard buffers at 25° C.

[3] = Photostability under continuous PA image acquisition; type: physicochemical; conditions: 770 nm, 1 hour
Description: FIG. 16. PA signal (770 nm) at the indicated time points of HyP-1 (dots) and red-HyP-1 (squares) solutions (10 μM in 0.1 M potassium phosphate buffer with 50% v/v EtOH) produced upon continuous image acquisition over the course of 1 h. Reported values represent mean PA signal observed after subtracting background signal produced from tissue-mimicking phantom.
as §1

[4] = system: 4T1 murine mammary carcinoma cells; test: Ratiometric fluorescence microscopy in living cells; type: cell-based; conditions: 4T1 cells, epifluorescence microscope Cy7/Cy5, after 6 hours
Description: After establishing excellent selectivity and responsiveness to hypoxic conditions in vitro, the performance of HyP-1 in living cells was evaluated before moving to in vivo studies. 4T1 murine mammary carcinoma cells were treated with a […] solution of HyP-1 and incubated at 37° C. either in a standard atmosphere containing 20% oxygen (normoxic conditions), or in an airtight chamber containing <0.1% oxygen (hypoxic conditions). Imaging was performed at 2, 4 and 6 hours using an epifluorescence microscope equipped with Cy5 and Cy7 filter sets to visualize HyP-1 and red-HyP-1, respectively (FIG. 5a).
Authenticated 4T1 cells were purchased from ATCC. Cells were grown in RPMI 1640 medium supplemented with 10% fetal bovine serum. Cells were cultured at 37° C. in 5% CO2 and 20% 02 for normoxic conditions. Hypoxic cell culture was performed by incubating cells in a sealed container with a Mitsubishi AnaeroPack™ anaerobic gas generator. Hypoxic conditions were verified with the use of a Mitsubishi RT Anaero-Indicator.
For fluorescence microscopy, cells were plated in 4-well chamber slides at an initial density of 1×10^4 cells/mL and allowed to grow until 60-80% confluent (approximately 6 days). Media was removed and cells were washed with PBS. […] Images were obtained using Cy5 and Cy7 filter cubes and analysed using ImageJ software (Version 1.50i).

[5] = PA imaging of compound solutions in tissue-mimicking phantoms; type: physicochemical; conditions: solutions in tissue-mimicking phantom
Description: FIG. 3. Photophysical characterization of HyP-1 and red-HyP-1. (a) Normalized absorbance (dashed) and emission (solid) spectra of HyP-1 (left) and red-HyP-1 (right). (b) PA spectra of HyP-1 and red-HyP-1. PA images of HyP-1 and red-HyP-1 solutions (10 μM in 0.1 M potassium phosphate buffer (pH 7.4) with 50% EtOH co-solvent) in tissue-mimicking phantoms were obtained, and the mean PA signal corresponding to each compound was plotted as a function of wavelength. Results are presented as mean±SD (n=3). (c) PA signal corresponding to various concentrations of red-HyP-1. […]
The significant change in the absorbance profiles of these compounds can be attributed to disruption of the electron donating capability of the aniline in its N-oxide form. This chemical modification is akin to protonation of the aniline, which has been previously shown to result in similar shifts in the absorbance. The 90 nm separation in absorbance is essential to the probes design as it allows us to readily distinguish each species by selective excitation and subsequent detection using both PA and fluorescence imaging. […] Additionally, because HyP-1 and red-HyP-1 have spectrally resolved emission profiles, ratiometric imaging can be performed by determining the ratio of their fluorescence emission intensities. […]

Row | SMILES | decomposition under ambient light and temperature [1] | pH dependence of absorbance and emission spectra [2] | PA intensity during continuous acquisition (photostability) [3] | ratiometric fluorescence response, hypoxic versus normoxic control [4] [fold] | PA signal at 770 nm [5]
1 | CC[N+]([O-])(CC)c1ccc(-c2cc(-c3ccccc3)c3n2[B-](F)(F)[N+]2=C(c4ccc(OC)cc4)C=C(c4ccccc4)C2=N3)cc1 [HyP-1, 4-(5,5-difluoro-7-(4-methoxyphenyl)-1,9-diphenyl-5H-5λ^4,6λ^4-dipyrrolo[1,2-c:2′,1′-f][1,3,5,2]triazaborinin-3-yl)-N,N-diethylaniline oxide] | no substantial decomposition | no significant pH dependence | remained unchanged | 1.6 | no signal
2 | CCN(CC)c1ccc(-c2cc(-c3ccccc3)c3n2[B-](F)(F)[N+]2=C(c4ccc(OC)cc4)C=C(c4ccccc4)C2=N3)cc1 [Red-HyP-1, 4-(5,5-difluoro-7-(4-methoxyphenyl)-1,9-diphenyl-5H-5λ^4,6λ^4-dipyrrolo[1,2-c:2′,1′-f][1,3,5,2]triazaborinin-3-yl)-N,N-diethylaniline] | – | no significant pH dependence | remained unchanged | – | strong PA signal
